Measurements reported in patent US10391103B2, “Ferroporphyrin solid dispersion and preparation method thereof” (Sinotherapeutics Inc., priority 2013, dated 2019).

What was measured:
[1] = rats; cited from earlier work
[2] = Stability test for the solid dispersions (content by HPLC)

- Content, stability study 0 day ([2]; open, 25° C. 60% RH): 100.9%
- Content, stability study 1 day ([2]; open, 25° C. 60% RH): 98.0%
- Content, stability study 3 days ([2]; open, 25° C. 60% RH): 98.7%
- Content, stability study 7 days ([2]; open, 25° C. 60% RH): 100.9%
- Content, stability study 35 days ([2]; open, 25° C. 60% RH): 98.8%
- Content, stability study 0 day ([2]; open, 40° C. 75% RH): 100.9%
- Content, stability study 1 day ([2]; open, 40° C. 75% RH): 99.0%
- Content, stability study 3 days ([2]; open, 40° C. 75% RH): 99.8%
- Content, stability study 7 days ([2]; open, 40° C. 75% RH): 100.8%
- Content, stability study 35 days ([2]; open, 40° C. 75% RH): 100.6%
- Content, stability study 0 day ([2]; sealed, 25° C. 60% RH): 100.9%
- Content, stability study 1 day ([2]; sealed, 25° C. 60% RH): 99.5%
- Content, stability study 3 days ([2]; sealed, 25° C. 60% RH): 102.0%
- Content, stability study 7 days ([2]; sealed, 25° C. 60% RH): 100.5%
- Content, stability study 14 days ([2]; sealed, 25° C. 60% RH): 98.9%
- Content, stability study 35 days ([2]; sealed, 25° C. 60% RH): 102.2%
- Content, stability study 0 day ([2]; sealed, 40° C. 75% RH): 100.9%
- Content, stability study 1 day ([2]; sealed, 40° C. 75% RH): 99.6%
- Content, stability study 3 days ([2]; sealed, 40° C. 75% RH): 102.7%
- Content, stability study 7 days ([2]; sealed, 40° C. 75% RH): 100.8%
- Content, stability study 14 days ([2]; sealed, 40° C. 75% RH): 99.2%
- Content, stability study 35 days ([2]; sealed, 40° C. 75% RH): 102.7%
Substance: porphyrin iron [API]
- absolute oral bioavailability [1]: 0.93%
